Source: ChEMBL document CHEMBL5678818, “Discovery of potent SOS1 inhibitors that block RAS activation via disruption of the RAS-SOS1 interaction” (Proc Natl Acad Sci U S A, 2019)

What was measured:
[1] = target: T1, MAP kinase-activated protein kinase 5 (Homo sapiens) (UniProt Q8IW41); test: Inhibition of MAPKAPK5 (unknown origin) assessed as residual activity at 1000 nM by KINOMEscan analysis relative to control
T1 sequence (whole entry): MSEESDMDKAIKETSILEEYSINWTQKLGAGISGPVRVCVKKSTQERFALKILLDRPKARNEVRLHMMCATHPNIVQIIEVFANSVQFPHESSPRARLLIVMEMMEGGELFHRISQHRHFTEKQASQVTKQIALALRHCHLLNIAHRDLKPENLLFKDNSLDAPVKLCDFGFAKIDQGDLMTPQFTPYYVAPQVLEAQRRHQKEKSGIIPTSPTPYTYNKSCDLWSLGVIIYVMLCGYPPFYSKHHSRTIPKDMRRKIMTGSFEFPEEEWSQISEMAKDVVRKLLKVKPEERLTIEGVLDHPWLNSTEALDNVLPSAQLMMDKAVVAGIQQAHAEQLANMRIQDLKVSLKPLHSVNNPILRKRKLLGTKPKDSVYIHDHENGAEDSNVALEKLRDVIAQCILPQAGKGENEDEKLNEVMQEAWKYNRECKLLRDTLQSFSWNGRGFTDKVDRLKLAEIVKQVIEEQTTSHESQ

[2] = target: T2, SNF-related serine/threonine-protein kinase (Homo sapiens) (UniProt Q9NRH2); test: Inhibition of SNRK (unknown origin) assessed as residual activity at 1000 nM by KINOMEscan analysis relative to control
T2 sequence (whole entry): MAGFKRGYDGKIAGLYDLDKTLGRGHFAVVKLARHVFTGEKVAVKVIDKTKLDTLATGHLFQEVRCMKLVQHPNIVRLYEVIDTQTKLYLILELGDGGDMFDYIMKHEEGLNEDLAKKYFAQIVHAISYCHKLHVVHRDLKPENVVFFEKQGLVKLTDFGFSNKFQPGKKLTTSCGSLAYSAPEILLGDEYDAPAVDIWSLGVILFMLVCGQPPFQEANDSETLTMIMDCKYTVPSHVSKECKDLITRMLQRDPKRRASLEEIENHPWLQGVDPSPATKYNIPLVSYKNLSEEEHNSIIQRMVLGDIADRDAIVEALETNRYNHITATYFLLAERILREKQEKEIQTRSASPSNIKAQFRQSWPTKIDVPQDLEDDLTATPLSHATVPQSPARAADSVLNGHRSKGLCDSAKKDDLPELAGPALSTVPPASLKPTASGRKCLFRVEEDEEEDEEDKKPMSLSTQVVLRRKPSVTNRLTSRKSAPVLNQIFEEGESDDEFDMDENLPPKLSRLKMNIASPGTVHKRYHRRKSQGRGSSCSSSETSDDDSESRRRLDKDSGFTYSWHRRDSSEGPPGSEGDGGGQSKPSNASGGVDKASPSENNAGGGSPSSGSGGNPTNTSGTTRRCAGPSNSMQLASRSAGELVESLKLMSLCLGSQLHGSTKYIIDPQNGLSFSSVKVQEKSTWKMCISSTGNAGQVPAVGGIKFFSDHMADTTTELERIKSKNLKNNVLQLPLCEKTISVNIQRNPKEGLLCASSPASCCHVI

[3] = target: T3, Serine/threonine-protein kinase TAO1 (Homo sapiens) (UniProt Q7L7X3); test: Inhibition of TAOK1 (unknown origin) assessed as residual activity at 1000 nM by KINOMEscan analysis relative to control
T3 sequence (whole entry): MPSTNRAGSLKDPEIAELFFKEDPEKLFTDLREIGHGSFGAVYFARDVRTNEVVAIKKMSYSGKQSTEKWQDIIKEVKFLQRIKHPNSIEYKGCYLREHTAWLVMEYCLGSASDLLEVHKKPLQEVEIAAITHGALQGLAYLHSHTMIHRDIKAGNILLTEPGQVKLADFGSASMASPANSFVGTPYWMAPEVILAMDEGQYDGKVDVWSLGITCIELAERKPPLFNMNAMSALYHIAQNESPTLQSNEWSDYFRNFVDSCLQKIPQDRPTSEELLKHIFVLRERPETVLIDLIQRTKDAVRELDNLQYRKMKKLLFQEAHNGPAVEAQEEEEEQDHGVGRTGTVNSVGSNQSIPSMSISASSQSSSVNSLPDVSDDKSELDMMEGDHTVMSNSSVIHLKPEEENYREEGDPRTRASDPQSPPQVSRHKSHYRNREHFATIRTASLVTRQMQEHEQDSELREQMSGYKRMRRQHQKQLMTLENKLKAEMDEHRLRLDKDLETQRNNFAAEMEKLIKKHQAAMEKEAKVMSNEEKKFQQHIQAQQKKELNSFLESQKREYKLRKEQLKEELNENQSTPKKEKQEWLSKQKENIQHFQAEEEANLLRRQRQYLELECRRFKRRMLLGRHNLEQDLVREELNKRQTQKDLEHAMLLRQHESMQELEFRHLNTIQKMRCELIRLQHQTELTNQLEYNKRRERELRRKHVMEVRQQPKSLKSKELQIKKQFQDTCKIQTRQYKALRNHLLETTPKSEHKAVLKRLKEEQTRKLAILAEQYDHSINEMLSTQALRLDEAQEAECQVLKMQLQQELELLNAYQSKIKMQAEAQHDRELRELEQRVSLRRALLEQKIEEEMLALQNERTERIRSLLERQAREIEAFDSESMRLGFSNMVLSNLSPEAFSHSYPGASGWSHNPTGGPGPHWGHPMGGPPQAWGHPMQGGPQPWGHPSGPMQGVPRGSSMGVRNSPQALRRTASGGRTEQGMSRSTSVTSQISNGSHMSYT

[4] = target: Serine/threonine-protein kinase PLK1 (Homo sapiens) (UniProt P53350); test: Inhibition of PLK1 (unknown origin) assessed as residual activity at 1000 nM by KINOMEscan analysis relative to control
[5] = system: Epidermal growth factor receptor (Homo sapiens), P00533 [UNDEFINED MUTATION]; test: Inhibition of EGFR L747-T751del/Sins mutant (unknown origin) assessed as residual activity at 1000 nM by KINOMEscan analysis relative to control
[6] = target: LIM domain kinase 1 (Homo sapiens) (UniProt P53667); test: Inhibition of LIMK1 (unknown origin) assessed as residual activity at 1000 nM by KINOMEscan analysis relative to control
[7] = target: Casein kinase I isoform gamma-1 (Homo sapiens) (UniProt Q9HCP0); test: Inhibition of CSNK1G1 (unknown origin) assessed as residual activity at 1000 nM by KINOMEscan analysis relative to control
Chain of Casein kinase I isoform gamma-1 (Homo sapiens) (Q9HCP0 whole entry, looked up, canonical isoform): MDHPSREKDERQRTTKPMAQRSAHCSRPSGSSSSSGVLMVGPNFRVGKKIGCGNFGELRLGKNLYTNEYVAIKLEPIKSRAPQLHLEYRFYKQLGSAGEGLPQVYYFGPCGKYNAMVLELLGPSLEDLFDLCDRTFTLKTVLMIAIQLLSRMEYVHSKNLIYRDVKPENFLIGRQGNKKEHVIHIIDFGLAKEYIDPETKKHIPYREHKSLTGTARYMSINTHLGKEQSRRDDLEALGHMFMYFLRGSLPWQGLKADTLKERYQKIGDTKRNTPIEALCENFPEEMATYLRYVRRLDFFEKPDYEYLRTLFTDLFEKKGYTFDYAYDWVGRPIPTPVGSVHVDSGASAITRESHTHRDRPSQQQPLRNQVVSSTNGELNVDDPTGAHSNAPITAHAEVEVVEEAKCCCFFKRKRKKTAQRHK

Chain of Epidermal growth factor receptor (Homo sapiens), P00533 [UNDEFINED MUTATION] (P00533 whole entry, looked up, stated change not applied, the tested form may be a part): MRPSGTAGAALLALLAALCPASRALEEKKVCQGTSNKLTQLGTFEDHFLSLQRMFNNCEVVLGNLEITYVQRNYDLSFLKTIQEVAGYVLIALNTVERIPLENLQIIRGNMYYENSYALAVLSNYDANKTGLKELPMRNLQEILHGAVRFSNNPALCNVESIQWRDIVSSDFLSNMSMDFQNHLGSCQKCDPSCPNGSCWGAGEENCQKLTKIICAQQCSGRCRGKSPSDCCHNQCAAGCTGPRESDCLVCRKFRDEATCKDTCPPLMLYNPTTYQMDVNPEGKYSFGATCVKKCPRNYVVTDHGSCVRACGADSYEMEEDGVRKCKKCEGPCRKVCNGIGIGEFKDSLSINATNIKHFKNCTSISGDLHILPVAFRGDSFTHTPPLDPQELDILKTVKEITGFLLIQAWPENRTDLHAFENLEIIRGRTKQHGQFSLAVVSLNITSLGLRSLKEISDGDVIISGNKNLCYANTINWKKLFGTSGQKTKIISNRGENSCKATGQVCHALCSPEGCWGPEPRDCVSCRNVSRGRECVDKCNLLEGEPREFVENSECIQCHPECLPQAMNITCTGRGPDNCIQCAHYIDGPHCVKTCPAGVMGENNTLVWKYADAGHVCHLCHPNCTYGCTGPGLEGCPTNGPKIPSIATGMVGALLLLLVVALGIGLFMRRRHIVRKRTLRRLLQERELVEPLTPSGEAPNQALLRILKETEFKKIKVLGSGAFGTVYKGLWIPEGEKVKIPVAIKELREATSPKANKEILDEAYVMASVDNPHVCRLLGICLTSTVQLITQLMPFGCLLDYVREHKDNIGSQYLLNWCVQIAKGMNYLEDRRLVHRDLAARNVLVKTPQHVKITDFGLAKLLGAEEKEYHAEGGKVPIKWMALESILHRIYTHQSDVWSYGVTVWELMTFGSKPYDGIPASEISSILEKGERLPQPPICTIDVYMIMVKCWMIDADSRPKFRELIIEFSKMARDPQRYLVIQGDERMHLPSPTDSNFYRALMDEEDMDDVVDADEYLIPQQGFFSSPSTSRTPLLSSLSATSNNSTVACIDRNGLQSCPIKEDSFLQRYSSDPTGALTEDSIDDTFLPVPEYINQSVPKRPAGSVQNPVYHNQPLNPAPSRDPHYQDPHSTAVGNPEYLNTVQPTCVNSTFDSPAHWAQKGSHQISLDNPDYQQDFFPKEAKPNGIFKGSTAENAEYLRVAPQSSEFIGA
Chain of Serine/threonine-protein kinase PLK1 (Homo sapiens) (P53350 whole entry): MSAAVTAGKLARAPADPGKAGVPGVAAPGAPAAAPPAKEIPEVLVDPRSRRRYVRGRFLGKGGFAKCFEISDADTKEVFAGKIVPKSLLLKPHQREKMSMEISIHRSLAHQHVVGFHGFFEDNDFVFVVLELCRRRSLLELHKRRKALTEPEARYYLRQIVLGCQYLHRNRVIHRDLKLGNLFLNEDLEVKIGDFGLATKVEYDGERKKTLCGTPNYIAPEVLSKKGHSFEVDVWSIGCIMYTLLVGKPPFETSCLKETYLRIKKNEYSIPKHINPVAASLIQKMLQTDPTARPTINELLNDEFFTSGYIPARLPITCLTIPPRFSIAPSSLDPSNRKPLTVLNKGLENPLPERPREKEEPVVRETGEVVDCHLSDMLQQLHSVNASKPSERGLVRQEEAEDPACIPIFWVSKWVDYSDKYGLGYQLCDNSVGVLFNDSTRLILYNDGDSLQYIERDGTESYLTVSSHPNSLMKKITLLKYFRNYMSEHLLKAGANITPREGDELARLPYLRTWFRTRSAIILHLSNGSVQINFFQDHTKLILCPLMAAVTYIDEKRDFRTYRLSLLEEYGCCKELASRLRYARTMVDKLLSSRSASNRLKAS
Chain of LIM domain kinase 1 (Homo sapiens) (P53667 whole entry, looked up, the tested form may be a part, canonical isoform): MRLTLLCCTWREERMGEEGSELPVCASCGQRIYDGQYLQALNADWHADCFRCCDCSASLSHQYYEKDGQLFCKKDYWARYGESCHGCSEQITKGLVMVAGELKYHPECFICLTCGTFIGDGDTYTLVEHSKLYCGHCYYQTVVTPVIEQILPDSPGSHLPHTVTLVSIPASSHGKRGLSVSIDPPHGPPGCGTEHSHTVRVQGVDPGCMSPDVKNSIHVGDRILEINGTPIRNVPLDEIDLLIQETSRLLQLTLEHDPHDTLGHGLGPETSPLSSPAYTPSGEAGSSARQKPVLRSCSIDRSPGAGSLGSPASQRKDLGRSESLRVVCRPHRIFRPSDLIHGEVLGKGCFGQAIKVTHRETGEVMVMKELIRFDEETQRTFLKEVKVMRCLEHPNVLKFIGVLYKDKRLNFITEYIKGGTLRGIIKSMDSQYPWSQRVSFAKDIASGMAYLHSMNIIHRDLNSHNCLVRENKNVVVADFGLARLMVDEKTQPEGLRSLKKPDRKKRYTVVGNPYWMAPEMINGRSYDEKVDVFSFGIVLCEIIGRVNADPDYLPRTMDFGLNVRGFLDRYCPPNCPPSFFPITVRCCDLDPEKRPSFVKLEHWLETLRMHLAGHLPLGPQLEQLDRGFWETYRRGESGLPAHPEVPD

Row | SMILES | Activity [1] | Activity [2] | Activity [3] | Activity [4] | Activity [5] | Activity [6] | Activity [7]
1 | COc1cc2nc(C)nc(N[C@H](C)c3cccc(-c4cn[nH]c4)c3)c2cc1OC | 85% | 95% | 100% | 100% | 99% | 100% | 96%
2 | COc1cc2ncnc(N[C@H](C)c3cccc4ccccc34)c2cc1OC | 87% | 92% | 89% | 92% | 5.8% | 100% | 100%
